Columns and labels:
Assay in all cases: relative viability (nuclei count vs DMSO), 5 days (fraction); higher = more cells survive
VX-702 + Trametinib = compound: NC(=O)c1ccc(N(C(N)=O)c2c(F)cccc2F)nc1-c1ccc(F)cc1F [VX-702] + CC(=O)Nc1cccc(-n2c(=O)n(C3CC3)c(=O)c3c(Nc4ccc(I)cc4F)n(C)c(=O)c(C)c32)c1 [Trametinib] (partner 0.02 µM)
Procedure, shortened: (§1)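 Nuclei were stained with Hoechst during a one-step fixation (final 0.05% Triton X-100, 1% formaldehyde, 1 ug/ml Hoechst) carried out 5 days after dosing, then counted on 4× images. The cells, lung cancer lines in 1536-well plates, had been dosed by pin tool the day after seeding with one drug alone or a fixed anchor-drug dose plus five library-drug doses (not always all listed) in √10 steps. Relative viability is the nuclei count in treated wells divided by that in vehicle wells, and each value is the median of duplicate plates.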

VX-702 + Navitoclax = compound: NC(=O)c1ccc(N(C(N)=O)c2c(F)cccc2F)nc1-c1ccc(F)cc1F [VX-702] + CC1(C)CCC(c2ccc(Cl)cc2)=C(CN2CCN(c3ccc(C(=O)NS(=O)(=O)c4ccc(N[C@H](CCN5CCOCC5)CSc5ccccc5)c(S(=O)(=O)C(F)(F)F)c4)cc3)CC2)C1 [Navitoclax] (partner 0.5 µM)
Procedure, shortened: as §1

Dabrafenib + Foretinib = compound: CC(C)(C)c1nc(-c2cccc(NS(=O)(=O)c3c(F)cccc3F)c2F)c(-c2ccnc(N)n2)s1 [Dabrafenib] + COc1cc2c(Oc3ccc(NC(=O)C4(C(=O)Nc5ccc(F)cc5)CC4)cc3F)ccnc2cc1OCCCN1CCOCC1 [Foretinib] (partner 0.25 µM)
Procedure, shortened: as §1

Dabrafenib + Vorinostat = compound: CC(C)(C)c1nc(-c2cccc(NS(=O)(=O)c3c(F)cccc3F)c2F)c(-c2ccnc(N)n2)s1 [Dabrafenib] + O=C(CCCCCCC(=O)Nc1ccccc1)NO [Vorinostat] (partner 1 µM)
Procedure, shortened: as §1

Cell Line	relative viability (VX-702 + Trametinib; first compound 0.02 µM)	relative viability (VX-702 + Trametinib; first compound 0.2 µM)	relative viability (VX-702 + Trametinib; first compound 0.6325 µM)	relative viability (VX-702 + Trametinib; first compound 2 µM)	relative viability (VX-702 + Navitoclax; first compound 0.02 µM)	relative viability (VX-702 + Navitoclax; first compound 0.2 µM)	relative viability (VX-702 + Navitoclax; first compound 0.6325 µM)	relative viability (VX-702 + Navitoclax; first compound 2 µM)	relative viability (Dabrafenib + Foretinib; first compound 0.003 µM)	relative viability (Dabrafenib + Foretinib; first compound 0.009487 µM)	relative viability (Dabrafenib + Foretinib; first compound 0.03 µM)	relative viability (Dabrafenib + Foretinib; first compound 0.09487 µM)	relative viability (Dabrafenib + Foretinib; first compound 0.3 µM)	relative viability (Dabrafenib + Vorinostat; first compound 0.009487 µM)	relative viability (Dabrafenib + Vorinostat; first compound 0.03 µM)	relative viability (Dabrafenib + Vorinostat; first compound 0.09487 µM)	relative viability (Dabrafenib + Vorinostat; first compound 0.3 µM)	relative viability (Dabrafenib + Vorinostat; first compound 0.003 µM)
LOU-NH91	0.828	0.763	0.768	0.743	0.638	0.638	0.643	0.422	0.858	1.01	0.894	0.918	0.958	0.941	0.964	0.941	1.07	
NCI-H1355	0.464	0.38	0.368	0.416	0.988	0.819	0.902	1.01		0.981	0.935	0.809	0.947	0.672	0.641	0.581	0.633	
LCLC-97TM1	0.197	0.192	0.185	0.202	0.379	0.458	0.344	0.489	0.938	0.99	0.972	0.864	0.953	0.928	0.695	0.283	0.596	
LK-2	0.591	0.696	0.568	0.788	0.834	0.811	0.64	0.781	1.14	1.17		1.28	1.26	0.228	0.268	0.265	0.34	0.333
RERF-LC-KJ	0.749	0.872	0.86	0.919	1.18	1.1	0.83	0.869	0.854	0.859	0.845	0.935	1.09	0.779	0.706	0.618	0.789	0.745
ChaGo-K-1	0.948	0.903	0.859	0.844	0.991	0.403	0.898	1.4	1.05	0.902	0.906	0.883	0.95	0.727	0.663	0.694	0.754	0.518
NCI-H1395	1.06	1.11	1.09	1.24	1.48	1.05	1.02	1.37	0.997	0.892	1.09	0.874	0.82	0.699	0.719	0.662	0.667	
LU99A	0.563	0.532	0.512	0.5	0.857	0.878	0.813	0.698	0.942	0.702	0.715	0.756	0.79	0.492	0.457	0.406	0.391	0.549
SK-MES-1	0.546	0.52	0.481	0.523	1.24	1.12	1.22	1.44	0.653	0.905	1	0.796	0.995	1.05	1.14	1.04	0.854	
NCI-H322M	0.543	0.499	0.518	0.613	1.2	1.02	1.19	1.28		1.19	0.75	0.879	0.945	0.962		0.822	0.74	
EMC-BAC-2	0.914	0.921	0.842	0.725	1.19	1.13	1.18	1.24	1.01	1.01	0.766	0.924	1.06	0.459	0.324	0.281	0.328	
HCC-78	0.53	0.861	0.741	0.801	0.673	0.772	0.806	0.852		0.633	0.537	0.632	0.581	0.507	0.426	0.511	0.616	
NCI-H2085	0.547	0.537	0.588	0.374	1.21	1.24	1.12	1.2	0.984	0.975	0.981	0.899	1.08	1.01	0.801	0.79	0.748	0.669
NCI-H441	0.349	0.386	0.351	0.538	0.705	0.632	0.511	0.871		1.11	0.941	1.05	0.843	0.725	0.994	0.804	0.839	
NCI-H1975	0.383	0.35	0.29	0.329	1.09	1.06	1.08	1.23	0.965	0.907	0.922	0.849	0.957	0.742	0.741	0.705	0.663	0.636
COR-L23	0.715	0.602	0.686	0.69	0.968	0.979	1.18	1.27	0.947	0.982	0.873	0.882	0.935	0.418	0.441	0.412	0.44	0.387
NCI-H460	0.209	0.172	0.166	0.0854	1.15	1.03	1.08	1.37	0.949	1.01	0.961	0.933	0.993	0.712	0.662	0.641	0.639	0.744
NCI-H838	0.535	0.521	0.525	0.6	1.25	1.13	1.19	1.36	1	1.06	0.801	0.923	1.1	0.752	0.713	0.711	0.759	0.693

Cell Line	relative viability (VX-702 + Trametinib; first compound 0.02 µM)	relative viability (VX-702 + Trametinib; first compound 0.2 µM)	relative viability (VX-702 + Trametinib; first compound 0.6325 µM)	relative viability (VX-702 + Trametinib; first compound 2 µM)	relative viability (VX-702 + Navitoclax; first compound 0.02 µM)	relative viability (VX-702 + Navitoclax; first compound 0.2 µM)	relative viability (VX-702 + Navitoclax; first compound 0.6325 µM)	relative viability (VX-702 + Navitoclax; first compound 2 µM)	relative viability (Dabrafenib + Foretinib; first compound 0.003 µM)	relative viability (Dabrafenib + Foretinib; first compound 0.009487 µM)	relative viability (Dabrafenib + Foretinib; first compound 0.03 µM)	relative viability (Dabrafenib + Foretinib; first compound 0.09487 µM)	relative viability (Dabrafenib + Foretinib; first compound 0.3 µM)	relative viability (Dabrafenib + Vorinostat; first compound 0.009487 µM)	relative viability (Dabrafenib + Vorinostat; first compound 0.03 µM)	relative viability (Dabrafenib + Vorinostat; first compound 0.09487 µM)	relative viability (Dabrafenib + Vorinostat; first compound 0.3 µM)	relative viability (Dabrafenib + Vorinostat; first compound 0.003 µM)
NCI-H2087	0.201	0.181	0.186	0.228	0.975	0.838	0.92	1.05		1.04	0.988	0.959	1.09	0.8	0.779	0.594	0.809	
NCI-H596	0.908	0.832	0.835	0.886	0.959	0.946	0.881	0.994		0.928	0.575	0.686	0.861	0.723	0.416	0.725	0.515	
HCC-827	0.55	0.501	0.515	0.425	1.01	0.988	0.891	0.939	1.11	1.04	0.876		1.03	1.01	0.785		0.79	0.423
NCI-H1755	0.841	0.799	0.838	0.869	1.08	0.971	1.05	1.04	0.879	0.894	0.767	0.876	0.911	0.726	0.558	0.771	0.728	0.849
SK-LU-1	0.497	0.472	0.486	0.651	0.7	0.757	0.66	1.32		0.848	0.633	0.64	0.757	0.716	0.692	0.605	0.651	
NCI-H2347	0.188	0.314	0.384	0.282	0.887	0.712	0.756	0.792		1.01			0.932	0.603	0.385	0.551	0.591	
NCI-H2023	0.497	0.458	0.458	0.558	1.02	1.01	0.89	1.03	0.866	0.922	0.796	0.877	1.02	0.717	0.733	0.559	0.6	0.716
NCI-H1944	0.426	0.401	0.398	0.378	1.04	1.03	1.15	0.973	0.832	0.887	0.948	0.827	0.85	0.529	0.508	0.659	0.483	0.445
NCI-H2126	0.511	0.542	0.547	0.544	0.832	0.814	0.779	0.698	1.15	1.22	1.15	1	1.43	0.916	0.767	0.888	0.993	0.693
NCI-H2170	0.999	0.891	0.958	0.987	0.625	0.372	0.665	0.607	1.03	0.539	0.961	1.01	1.11	0.798	0.703	0.647	0.732	0.777
SW 1573	0.569	0.467	0.473	0.649	0.938	0.809	0.831	0.909	0.757	0.992	0.806	1.01	1.05	0.719	0.672	0.552	0.673	0.73
EPLC-272H	0.296	0.279	0.279	0.273	1.23	1.08	1.05	1.17	0.671	0.811	0.619	0.587	0.738	0.411	0.409	0.436	0.498	0.401
NCI-H1651	0.747	0.822	0.819	0.884	0.933	0.96	0.982	1.27	0.725	0.728	0.631	0.799	0.761	0.533	0.573	0.419	0.544	0.567
NCI-H23	0.4	0.411	0.392	0.413	0.701	0.798	0.805	0.933		1.04	0.906	0.878	0.873	0.548	0.592	0.354	0.409	
NCI-H727	0.387	0.381	0.382	0.359	0.439	0.508	0.498	0.445		0.886	0.601	0.947	1.1	1.27		0.995	1.19	0.538
NCI-H1993	0.607	0.495	0.527	0.576	0.805	0.874	0.896	0.835	0.762	0.852	0.64	0.71	0.901	1.35	0.735	0.631	1.09	0.753
NCI-H2405	0.58	0.593	0.615	0.618	0.813	0.773	0.89	1.2		0.985		0.949	1.07	1	0.488	0.81	0.962	
HCC-366	0.341	0.314	0.269	0.266	0.971	0.988	1.1	0.918	0.894	0.944	0.812	0.875	0.891	0.286	0.29	0.296	0.247	0.365
